Measured values from the METLIN SMRT retention time set (Domingo-Almenara et al. 2019).

Test: gradient 5% acetonitrile 3 min, to 50% in 2 min, to 85% in 15 min, held 3 min, 100 µL/min
Details: column: Zorbax Extend-C18 2.1 x 50 mm; eluents: water / acetonitrile, 0.1% formic acid
In short: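 The system's dead and dwell volumes were 40 μL and 900 μL, with a Zorbax Extend-C18 column (2.1 × 50 mm, 1.8 μm) run at 100 μL/min in water and acetonitrile containing 0.1% formic acid each. Pure standards were analyzed in mixtures of ~100 molecules by HPLC–quadrupole time-of-flight mass spectrometry in positive and negative ionization mode. Retention time was assigned from computationally picked, manually inspected adduct peaks.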

Cc1nnc2n1CCC(N(C)C(=O)c1cc(C3CC3)[nH]n1)CC2 (centres undefined)
RP-LC retention time: 530 s

Cc1nn(C(C)C(=O)NCCCN2CCN(C)CC2)c(=O)c2c(C)n(-c3ccccc3)nc12 (centres undefined)
RP-LC retention time: 592 s

O=C(NC1COc2ccccc2C1)N1CCN(c2ccccn2)CC1 (centres undefined)
RP-LC retention time: 616 s

CCOC(=O)c1cnc2nc(C)ccc2c1Nc1ccc(F)cc1Cl
RP-LC retention time: 742 s

O=C(c1ccc(-c2ccsc2)nc1)N1CCCCCC1
RP-LC retention time: 841 s

CN1CCN(c2ccc([N+](=O)[O-])c3no[n+]([O-])c23)CC1
RP-LC retention time: 631 s

CCOC(=O)CSc1nnc(CNC(=O)c2cc(OC)c(OC)c(OC)c2)n1C
RP-LC retention time: 601 s

CN(C)c1ccc(C(=O)N2CCN(c3cc(-c4ccccc4)[nH]n3)CC2)cc1
RP-LC retention time: 757 s

CCCN(CC1CC1)C(=O)[C@@H]1COCC(=O)N1Cc1ccccc1
RP-LC retention time: 818 s

O=C1CC(c2cc(Br)ccc2F)c2scc(S(=O)(=O)c3ccccc3)c2N1 (centres undefined)
RP-LC retention time: 1010 s

O=C(CCn1c(N2CCCC2)nc2ccsc2c1=O)NCc1ccc(F)cc1F
RP-LC retention time: 779 s

Cc1ccccc1CN1C[C@@H]2C(=O)N(C)C(=O)[C@@H]2C1
RP-LC retention time: 585 s

COc1ccc(NC(=O)CSc2nccc(N3CCN(c4cccc(OC)c4)CC3)n2)cc1
RP-LC retention time: 735 s

CCn1c(=O)c(N2CCC(NC(=O)Nc3cc(C)cc(C)c3)CC2)nc2cccnc21
RP-LC retention time: 1010 s

Cc1ccc(-c2cc3c4nnc(CCC(=O)NC5CCCCCC5)n4ccn3n2)cc1C
RP-LC retention time: 587 s

O=C(c1cccn1Cc1noc(C2CC2)n1)N1CCN(c2ccccc2)CC1
RP-LC retention time: 946 s

CC(C)CCN1CC(=O)N2Cc3[nH]c4ccccc4c3C[C@H]2C1=O
RP-LC retention time: 825 s

O=C(NCc1cccc(Br)c1)c1nc(Cn2c(=O)oc3ccccc32)no1
RP-LC retention time: 895 s

Cc1nc(-c2ccc3c(c2)CCN3C(=O)Cc2cccc(F)c2)cs1
RP-LC retention time: 991 s

Cn1c(=O)n([C@H]2CCN(C(=O)Nc3ccc4c(c3)OCCO4)C2)c2ncccc21
RP-LC retention time: 686 s

Cc1cccc(Cn2ccc3ccn(CC(=O)N4CCOc5ccc(C)cc54)c(=O)c32)c1
RP-LC retention time: 1090 s

COc1ccc(Cc2nc3ccccc3n2CC(=O)N2CCCCCC2)cc1OC
RP-LC retention time: 653 s

Cc1nnc(-c2ccc(S(=O)(=O)N3CCCC(C)C3)o2)o1 (centres undefined)
RP-LC retention time: 836 s

COc1ccc(NC(=O)N(C)CCc2noc(COc3ccccc3F)n2)cc1
RP-LC retention time: 845 s

CC(C)Cn1nc(CNC(=O)c2cnccn2)c2ccccc21
RP-LC retention time: 826 s

Cc1ccccc1S(=O)(=O)N1CCC(N2CCN(Cc3ccccc3)C(=O)C2=O)CC1
RP-LC retention time: 826 s

Cc1nnc([C@@H]2CC(F)(F)CN2C(=O)COc2ccccc2)o1
RP-LC retention time: 667 s

C=CCn1nc2ccc(S(=O)(=O)N3CCC(C)CC3)cn2c1=O
RP-LC retention time: 843 s

CCn1c(C(=O)NCc2ccccc2)cc2sc(Cl)cc21
RP-LC retention time: 1110 s

Nc1cc(-c2cccs2)nn1CCO
RP-LC retention time: 562 s

CSc1ccccc1C(=O)N(CCc1ccccc1)Cc1ccccn1
RP-LC retention time: 762 s

Cc1ncc2c(n1)C[C@@H]1CC[C@H]2N1C(=O)c1ccc2c(c1)OCO2
RP-LC retention time: 639 s

Cc1nc(-c2ccc(N3CCN(C(=O)COc4ccc(F)cc4)CC3)nc2)sc1C
RP-LC retention time: 880 s

CCn1c(=O)c(=O)n(CC(=O)NCCN2CCCCC2)c2cccnc21
RP-LC retention time: 565 s

O=C(Cn1cccc(-c2nc(-c3ccc(F)cc3)no2)c1=O)N1CCN(c2ccc(F)cc2)CC1
RP-LC retention time: 898 s

O=C([C@@H]1C[C@H](F)CN1S(=O)(=O)c1ccccc1)N1CCCCC1
RP-LC retention time: 735 s

O=C(NC1CC1)C1CCN(c2nnc(-c3ccccc3)o2)CC1
RP-LC retention time: 657 s

CC1CCN(C(=O)c2nnc(-c3ccc(S(=O)(=O)N4CCCCC4)cc3)o2)CC1
RP-LC retention time: 1060 s

CC1C(=O)NCCN1C(=O)c1ccc(Oc2ccccc2)cc1 (centres undefined)
RP-LC retention time: 670 s

CCOC(=O)c1ccccc1NC(=O)Cn1c(-c2ccccc2)nc(C)cc1=O
RP-LC retention time: 1330 s

CCc1cccc(C)c1Nc1c(-c2ccc(C)cc2)nc2nc(C)cc(C)n12
RP-LC retention time: 880 s

Nc1ncnc2c1ncn2C=C=CCO
RP-LC retention time: 581 s

Cc1cc(C)c2[nH]c3c(c(=O)c2c1)CN(CC(=O)NCc1ccc(F)cc1)CC3
RP-LC retention time: 620 s

CCc1ccc(OCC(=O)Nc2cc3c(cc2N2CCCC2)n(C)c(=O)c(=O)n3C)cc1
RP-LC retention time: 836 s

CCc1nc2cc(-c3noc(-c4ccc(OC)c(F)c4)n3)ccc2o1
RP-LC retention time: 1170 s

CCN(CC)c1ccc(NC(=O)C2CCCN(c3ccc(=O)n(-c4cccc(Cl)c4)n3)C2)c(C)c1 (centres undefined)
RP-LC retention time: 662 s

CCCNC(=O)N1CCCCCCN(C)C(=O)CC1
RP-LC retention time: 662 s

COc1ccc(OC)c(S(=O)(=O)N2CCCC(C(=O)N3CCC(C(N)=O)CC3)C2)c1 (centres undefined)
RP-LC retention time: 635 s

CC(C)Oc1ccc(-c2noc(CN3N=NC4C(=O)N(c5ccc(F)c(F)c5)C(=O)C43)n2)cc1 (centres undefined)
RP-LC retention time: 1110 s

CCn1c(=O)c(N2CCC(NC(=O)Nc3ccc(OC)c(OC)c3)CC2)nc2ccccc21
RP-LC retention time: 785 s

COc1cccc(N2CCN(c3ccnc(SCC(=O)Nc4ccc(F)cc4)n3)CC2)c1
RP-LC retention time: 768 s

CCOc1ccccc1-c1nc(CN(c2ccccc2)S(=O)(=O)c2cccs2)c(C)o1
RP-LC retention time: 1160 s

CCC(C)NC(=O)Cn1nc2c(Oc3ccccc3)nc3ccccc3n2c1=O (centres undefined)
RP-LC retention time: 895 s

O=C(CN1CCN(C(=O)Nc2ccc(Cl)cc2)CC1=O)N1CCN(c2ccccn2)CC1
RP-LC retention time: 592 s

CC1Cc2ccccc2N1C(=O)Cn1c(=O)n(C(C)C)c2ccc(S(=O)(=O)N3CCCC3)cc21 (centres undefined)
RP-LC retention time: 963 s

Cc1ccc2oc(=O)n(Cc3noc(C(=O)NCc4ccc(Br)cc4)n3)c2c1
RP-LC retention time: 952 s

CCOC(=O)COC(=O)c1cn(-c2ccc(F)cc2)c(=O)c2ccccc12
RP-LC retention time: 1030 s

COc1ccc2nc(-c3ccc(F)c(NC(=O)Nc4ccccc4C)c3)cn2n1
RP-LC retention time: 789 s

CCN1CCN(c2c(C(=O)c3ccc(OC)cc3)cnc3cc4c(cc23)OCCO4)CC1
RP-LC retention time: 551 s

Cn1nccc1-c1cccc(-c2noc(CNS(=O)(=O)c3ccc(F)cc3)n2)c1
RP-LC retention time: 868 s

CCOc1ccc2nc(NC(=O)C3CCN(S(=O)(=O)c4cn(C)c(C)n4)CC3)sc2c1
RP-LC retention time: 772 s

COc1ccc(-n2nc3c(N4CCCC(C(=O)NCCC5=CCCCC5)C4)nnc(C)c3c2C)cc1 (centres undefined)
RP-LC retention time: 814 s

COc1ccc(NS(=O)(=O)c2ccc3c(c2)C(=O)N(C)c2ncccc2O3)cc1
RP-LC retention time: 844 s

CCN1CCn2c(nc3cc(C(=O)NCC4CCCCC4)ccc32)C1=O
RP-LC retention time: 702 s

CC(C)Cn1ccc2c(cc(C(=O)NCc3cccc(Br)c3)n2C)c1=O
RP-LC retention time: 901 s

CCOc1nccnc1N1CCC(N(C)C(=O)Cc2c(C)noc2C)C1 (centres undefined)
RP-LC retention time: 672 s

CCCN(CCC)S(=O)(=O)c1cccc(-c2cn3cccc(C)c3n2)c1
RP-LC retention time: 774 s

O=C(NCCCN1CCOCC1)C1CCCN(c2nccnc2Sc2ccccc2)C1 (centres undefined)
RP-LC retention time: 651 s

Cc1cc(C)cc(NC(=O)c2cccn2Cc2noc(C3CC3)n2)c1
RP-LC retention time: 994 s

Cc1ccc2c(c1)OCC(=O)N2Cc1nc(-c2ccccc2)no1
RP-LC retention time: 1040 s

COCCC(=O)N1CCOc2ccc(N(C)C)cc2C1
RP-LC retention time: 612 s

O=C(NCc1ccccn1)c1nnc(-c2ccc(S(=O)(=O)N3CCCCC3)cc2)o1
RP-LC retention time: 732 s

Cn1cc(S(=O)(=O)N2CCCC2)cc1C(=O)N1CCn2c1nc1ccccc12
RP-LC retention time: 652 s

Cc1cccc(-c2nnc(-c3nc(NC4CCS(=O)(=O)C4)c4ccccc4n3)o2)c1 (centres undefined)
RP-LC retention time: 821 s

CCC(C(=O)NCc1cccc(OC)c1OC)n1sc2ccccc2c1=O (centres undefined)
RP-LC retention time: 988 s

CCCN1C(=O)COc2ccc(-c3csc(NC(=O)c4cccc(Cl)c4)n3)cc21
RP-LC retention time: 1150 s

O=C(Nc1ccc(Cl)cc1)N1CCCC1c1nc(-c2ccc(F)cc2F)no1 (centres undefined)
RP-LC retention time: 1040 s

Cc1ccc(-c2nnc(-c3cccc(S(=O)(=O)NC(C(=O)O)C(C)C)c3)o2)cc1 (centres undefined)
RP-LC retention time: 874 s

O=c1ccc(-c2cccs2)nn1CCNS(=O)(=O)c1ccccc1C(F)(F)F
RP-LC retention time: 779 s

Fc1ccc(-c2nn3c(CSc4ccccc4)nnc3s2)cc1
RP-LC retention time: 967 s

CCCC(=O)Nc1ccc(S(=O)(=O)NCCn2ncccc2=O)cc1
RP-LC retention time: 612 s

CCCn1cnnc1C1CCCCN1S(=O)(=O)c1cccnc1 (centres undefined)
RP-LC retention time: 580 s

COc1ccc(-c2nnc3sc(COc4ccc(Br)cc4)nn23)cc1
RP-LC retention time: 1060 s

Cc1ccc(CNC(=O)c2nnc(-c3ccc(S(=O)(=O)N(C)C)cc3)o2)cc1C
RP-LC retention time: 947 s

Nc1cc(C2CCN(C(=O)c3cccc(Br)c3)CC2)no1
RP-LC retention time: 709 s

O=C(Cn1cccc(-c2nc(-c3ccc(Cl)cc3)no2)c1=O)Nc1ccc2c(c1)OCO2
RP-LC retention time: 916 s

CN(C)S(=O)(=O)c1ccc2c(c1)N(CC(=O)N1CCN(c3ccccn3)CC1)CCS2
RP-LC retention time: 640 s

CC(C)Cc1cc(-c2nn3c(-c4ccc(Br)cc4)nnc3s2)n[nH]1
RP-LC retention time: 1150 s

O=C(CSc1nnc(NC(=O)Cc2cccc3ccccc23)s1)NCC1CCCO1 (centres undefined)
RP-LC retention time: 715 s
